Reference: patent US20240287048A1, “SUBSTITUTED ACYL SULFONAMIDES FOR TREATING CANCER” (The Broad Institute, Inc., priority 2020, published 2024)
pIC50: −log10 of the molar value.

How the values were obtained:
KAT6B = biological target: T1, KAT6B (Homo sapiens, UniProt Q8WYB5); assay: Kat6b activity assay (TR-FRET, acetylation of biotinylated histone H4 peptide); assay type: biochemical; conditions: recombinant human GST-tagged Kat6b (431-end), 30 mins at 22° C., read-out: KAT6B activity assay IC50 [mol/l] (arithmetic mean)
T1 construct: fused on or other part: N-terminal GST tag
Description: Kat6b inhibitory activities of the compounds described in the present invention were quantified using a Fluorescence Resonance Energy Transfer (TR-FRET) assay which measures acetylation of a synthetic, biotinylated Histone-H4-derived peptide by the enzyme.
Recombinant human GST-tagged Kat6b protein (431-end, N-terminal GST-tag), purified from Baculovirus-infected insect cells (Sf9), was purchased from SignalChem (#K315-381BG). Histone H4 peptide (amino acids 1-24, […]-VLRD-K(Btn)-amide), which was used as substrate, was synthesized by Biosyntan GmbH, Berlin, Germany. Acetyl Coenzyme A was purchased from Sigma-Aldrich (#A-2056).
Kat6b was incubated for 30 mins at 22° C. in the presence of different concentrations of test substances (0 μM, and within the range 0.01-20 μM) in assay buffer [25 mM Tris/HCl pH 8, 1 mM EGTA, 2.5 mM Glutathion, 0.02% Chicken Albumin, 0.05% Pluronic F127, 25 mM NaCl, 500 nM H4 peptide and 600 nM Acetyl Coenzyme A].
The reaction was stopped by addition of Detection Solution (25 mM HEPES pH 7.5, 0.1% BSA, 22 nM SAXL665 (Cisbio #610SAXLE), 100 μM Anacardic Acid (Enzo #ALX-270-381), 1 nM Anti-Histone H4 (ACETYL K8) Antibody (ABCAM #AB15823), 0.5 nM Anti-Rabbit IgG Eu (Perkin Elmer #AD0083).
The fluorescence emission at 620 nm and 665 nm after excitation at 330-350 nm was measured in a TR-FRET measuring instrument, for instance a Rubystar or a Pherastar (both from BMG Lab Technologies, Offenburg, Germany) or a Viewlux (Perkin-Elmer). The ratio of the emission at 665 nm and at […] was used as indicator of the amount of acetylated peptide.
The resulting data (ratio) were normalized, taking 0% inhibition as the mean value of control measurements where all reagents were included. In this case 50 nl DMSO were used instead of compounds. […] IC50 values were determined by regression analysis based on a 4 parameter equation (minimum, maximum, ICM, Hill; Y=Max+(Min−Max)/(1+(X/ICso) Hill) using the Screener Software (Genedata).

[1] = system: ESR1 transcription in MVLN cells; assay: Repression of ESR1 transcription, MVLN luciferase reporter assay; assay type: cell-based; conditions: Homo sapiens, luciferase signal after 24 h, read-out: MVLN reporter assay, IC50[M] (arithmetic mean)
Method in brief: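 MVLN cells stably carry an ER-responsive vitellogenin A2 element driving luciferase. After 24 h of compound treatment, luciferase was read in lysate as the measure of ERα transcription. Alamar Blue fluorescence (530/590 nm, 2 h) was read first to control for cell loss; samples were run in duplicate.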

[2] = system: E. coli wp2 (E. coli wp2 [pKM101] and E. coli wp2 uvrA, combined exposure); assay: Bacterial reverse gene mutation test Ames MPF Penta I, E. coli wp2; assay type: cell-based
Description: The employed commercial assay Ames MPF Penta I comprises the histidine auxotrophic Salmonella tester strains TA98, TA100, TA1535, TA1537 and two tryptophan auxotrophic tester strains E. coli wp2 (E. coli wp2 [pKM101] and E. coli wp2 uvrA, combined exposure). These strains meet the requirements of the OECD guideline 471 for testing chemicals.
Bacterial strains were exposed to various concentrations of the test compounds in a histidine (His) or tryptophane (Trp) deficient medium. As recommended by ICH S2(R1) guideline, the test was conducted in two assay conditions, with and without addition of microsomal enzymes (S9 mix), taking the potential formation of DNA reactive metabolites via xenobiotic biotransformation into account.
The potential of the test compound to induce gene mutations is assessed by comparing the control with the test compounds treated bacterial cultures.

T1 sequence (Q8WYB5 723-2073 limits assumed): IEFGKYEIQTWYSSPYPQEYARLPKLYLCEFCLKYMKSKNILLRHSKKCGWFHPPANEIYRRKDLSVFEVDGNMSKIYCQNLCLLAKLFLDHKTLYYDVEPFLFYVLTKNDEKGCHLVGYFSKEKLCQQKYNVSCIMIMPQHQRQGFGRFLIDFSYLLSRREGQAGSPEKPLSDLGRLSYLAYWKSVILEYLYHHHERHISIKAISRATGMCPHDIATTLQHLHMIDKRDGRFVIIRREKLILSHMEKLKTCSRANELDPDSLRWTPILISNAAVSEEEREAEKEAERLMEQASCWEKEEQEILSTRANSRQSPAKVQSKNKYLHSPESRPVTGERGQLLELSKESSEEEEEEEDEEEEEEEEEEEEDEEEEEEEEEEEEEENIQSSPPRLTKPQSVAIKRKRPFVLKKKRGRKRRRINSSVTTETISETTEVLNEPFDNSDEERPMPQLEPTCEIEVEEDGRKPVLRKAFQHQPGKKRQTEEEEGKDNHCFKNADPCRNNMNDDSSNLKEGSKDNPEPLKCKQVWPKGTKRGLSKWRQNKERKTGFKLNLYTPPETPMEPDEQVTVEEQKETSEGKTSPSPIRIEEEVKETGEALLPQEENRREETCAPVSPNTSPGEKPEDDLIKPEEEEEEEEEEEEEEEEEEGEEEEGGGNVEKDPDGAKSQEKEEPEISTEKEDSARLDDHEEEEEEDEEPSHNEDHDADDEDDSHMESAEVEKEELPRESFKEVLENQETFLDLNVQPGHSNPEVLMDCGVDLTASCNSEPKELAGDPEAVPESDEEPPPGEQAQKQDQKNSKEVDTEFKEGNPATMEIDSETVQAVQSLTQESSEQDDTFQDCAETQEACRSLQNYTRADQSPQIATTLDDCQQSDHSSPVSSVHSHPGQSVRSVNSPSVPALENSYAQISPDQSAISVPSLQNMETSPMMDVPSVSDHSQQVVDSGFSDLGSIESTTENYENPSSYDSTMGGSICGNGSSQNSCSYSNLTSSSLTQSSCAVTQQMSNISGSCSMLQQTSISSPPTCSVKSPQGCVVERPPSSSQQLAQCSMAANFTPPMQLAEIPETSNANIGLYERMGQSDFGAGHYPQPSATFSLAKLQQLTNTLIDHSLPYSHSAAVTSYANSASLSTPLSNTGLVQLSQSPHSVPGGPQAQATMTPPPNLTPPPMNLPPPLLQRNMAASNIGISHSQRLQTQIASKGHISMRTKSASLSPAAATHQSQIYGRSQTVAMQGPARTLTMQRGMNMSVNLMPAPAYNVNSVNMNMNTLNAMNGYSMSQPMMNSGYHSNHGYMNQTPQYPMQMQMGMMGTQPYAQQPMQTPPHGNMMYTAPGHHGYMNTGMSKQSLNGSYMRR

| SMILES | pIC50 (KAT6B) | IC50 [1] | Result of the bacterial reverse gene mutation test Ames MPF Penta I, E. coli wp2 ([2]; with addition of S9 mix) | Result of the bacterial reverse gene mutation test Ames MPF Penta I, E. coli wp2 ([2]; without addition of S9 mix) |
| --- | --- | --- | --- | --- |
| O=C(NS(=O)(=O)c1ccccc1-c1ccccc1)c1cc2ccc(C3CC3)cc2o1 [Example 16, N-([1,1′-biphenyl]-2-sulfonyl)-6-cyclopropyl-1-benzofuran-2-carboxamide] | 6.98 | 1.02e-06 M | negative | negative |
| CCOc1ccccc1S(=O)(=O)NC(=O)c1cc2ccc(C(C)C)cc2o1 [Example 55, N-(2-Ethoxybenzenesulfonyl)-6-(propan-2-yl)-1-benzofuran-2-carboxamide] | 6.27 | 1.34e-06 M | negative | negative |
